# Values quoted from earlier work as cited in PubChem BioAssay AID1259409 (Chemical Carcinogenesis Research Information System (CCRIS), 2018).
# Test system: rodent chemically induced tumor inhibition, incidence and multiplicity
# Test: CCRIS tumor inhibitor studies
compound,measurement,setting,value
CC1=C(/C=C/C(C)=C/C=C/C(C)=C/C=C/C=C(C)/C=C/C=C(C)/C=C/C2=C(C)C(=O)[C@@H](O)CC2(C)C)C(C)(C)C[C@H](O)C1=O,"tumour outcome (control, treated, inhibition, significance)","Carcinogen: 4-NITROQUINOLINE-1-OXIDE, 56-57-5, Dose [Inhibitor]: 0, 100 PPM IN DIET FOR 10 WK BEGINNING PRIOR TO CARCINOGEN TREATMENT (STUDY DURATION: 32 WK), Route [Inhibitor]: ORAL, Species: RAT, Strain/Sex: F344/MALE, Target Tissue: Type of Lesion: TONGUE: PAPILLOMA, Dose [Carcinogen]: 20 PPM IN DRINKING WATER FOR 8 WK, Promoter: NONE USED","4/24 (17%), 0/18 (0%), 100%, p<0.05"
same,"tumour outcome (control, treated, inhibition, significance)","Carcinogen: 4-NITROQUINOLINE-1-OXIDE, 56-57-5, Dose [Inhibitor]: 0, 100 PPM IN DIET FOR 10 WK BEGINNING PRIOR TO CARCINOGEN TREATMENT (STUDY DURATION: 32 WK), Route [Inhibitor]: ORAL, Species: RAT, Strain/Sex: F344/MALE, Target Tissue: Type of Lesion: TONGUE: SQUAMOUS CELL CARCINOMA, Dose [Carcinogen]: 20 PPM IN DRINKING WATER FOR 8 WK, Promoter: NONE USED","13/24 (54%), 0/18 (0%), 100%, p<0.05"
same,"tumour outcome (control, treated, inhibition, significance)","Carcinogen: 4-NITROQUINOLINE-1-OXIDE, 56-57-5, Dose [Inhibitor]: 0, 100 PPM IN DIET FOR 22 WK BEGINNING 1 WK POST CARCINOGEN TREATMENT (STUDY DURATION: 32 WK), Route [Inhibitor]: ORAL, Species: RAT, Strain/Sex: F344/MALE, Target Tissue: Type of Lesion: TONGUE: PAPILLOMA, Dose [Carcinogen]: 20 PPM IN DRINKING WATER FOR 8 WK, Promoter: NONE USED","4/24 (17%), 0/20 (0%), 100%, p<0.05"
same,"tumour outcome (control, treated, inhibition, significance)","Carcinogen: 4-NITROQUINOLINE-1-OXIDE, 56-57-5, Dose [Inhibitor]: 0, 100 PPM IN DIET FOR 22 WK BEGINNING 1 WK POST CARCINOGEN TREATMENT (STUDY DURATION: 32 WK), Route [Inhibitor]: ORAL, Species: RAT, Strain/Sex: F344/MALE, Target Tissue: Type of Lesion: TONGUE: SQUAMOUS CELL CARCINOMA, Dose [Carcinogen]: 20 PPM IN DRINKING WATER FOR 8 WK, Promoter: NONE USED","13/24 (54%), 0/20 (0%), 100%, p<0.05"
same,"tumour outcome (control, treated, inhibition, significance)","Carcinogen: N-BUTYL-N-(4-HYDROXYBUTYL)NITROSAMINE, 3817-11-6, Dose [Inhibitor]: 0, 50 PPM IN DRINKING WATER FOR 2O WK BEGINNING 1 WK POST CARCINOGEN TREATMENT (STUDY DURATION: 41 WK), Route [Inhibitor]: ORAL, Species: MOUSE, Strain/Sex: ICR/MALE, Target Tissue: Type of Lesion: URINARY BLADDER: CARCINOMA, Dose [Carcinogen]: 250 PPM IN DRINKING WATER FOR 20 WK, Promoter: NONE USED","15/36 (42%), 6/33 (18%), 57%, p<0.05"
same,"tumour outcome (control, treated, inhibition, significance)","Carcinogen: N-BUTYL-N-(4-HYDROXYBUTYL)NITROSAMINE, 3817-11-6, Dose [Inhibitor]: 0, 50 PPM IN DRINKING WATER FOR 20 WK BEGINNING 1 WK POST CARCINOGEN TREATMENT (STUDY DURATION: 41 WK), Route [Inhibitor]: ORAL, Species: MOUSE, Strain/Sex: ICR/MALE, Target Tissue: Type of Lesion: URINARY BLADDER: PAPILLOMA, Dose [Carcinogen]: 250 PPM IN DRINKING WATER FOR 20 WK, Promoter: NONE USED","2/36 (6%), 4/33 (12%), -100%, not significant"
c1ccc2c(c1)c1cccc3ccc4cccc2c4c31,"tumour outcome (control, treated, inhibition, significance)","Carcinogen: BENZO[A]PYRENE, 50-32-8, Dose [Inhibitor]: 5 UG IN 0.1 ML ACETONE 3/WK ADMINISTERED SIMULTANEOUSLY WITH CARCINOGEN FOR DURATION OF STUDY (STUDY DURATION: 368 D), Route [Inhibitor]: DERMAL, Species: MOUSE, Strain/Sex: ICR/FEMALE, Target Tissue: Type of Lesion: SKIN: PAPILLOMA, Dose [Carcinogen]: 5 UG IN 0.1 ML ACETONE 3/WK FOR DURATION OF STUDY, Promoter: NONE USED","14/50 (28%), 24/50 (48%), -71%, not calculated"
same,"tumour outcome (control, treated, inhibition, significance)","Carcinogen: BENZO[A]PYRENE, 50-32-8, Dose [Inhibitor]: 5 UG IN 0.1 ML ACETONE 3/WK ADMINISTERED SIMULTANEOUSLY WITH CARCINOGEN FOR DURATION OF STUDY (STUDY DURATION: 368 D), Route [Inhibitor]: DERMAL, Species: MOUSE, Strain/Sex: ICR/FEMALE, Target Tissue: Type of Lesion: SKIN: SQUAMOUS CARCINOMA, Dose [Carcinogen]: 5 UG IN 0.1 ML ACETONE 3/WK FOR DURATION OF STUDY, Promoter: NONE USED","10/50 (20%), 9/50 (18%), 10%, not calculated"
same,"tumour outcome (control, treated, inhibition, significance)","Carcinogen: BENZO[A]PYRENE, 50-32-8, Dose [Inhibitor]: 15 UG IN 0.1 ML ACETONE 3/WK ADMINISTERED SIMULTANEOUSLY WITH CARCINOGEN FOR DURATION OF STUDY (STUDY DURATION: 368 D), Route [Inhibitor]: DERMAL, Species: MOUSE, Strain/Sex: ICR/FEMALE, Target Tissue: Type of Lesion: SKIN: PAPILLOMA, Dose [Carcinogen]: 5 UG IN 0.1 ML ACETONE 3/WK FOR DURATION OF STUDY, Promoter: NONE USED","14/50 (28%), 33/50 (66%), -136%, not calculated"
same,"tumour outcome (control, treated, inhibition, significance)","Carcinogen: BENZO[A]PYRENE, 50-32-8, Dose [Inhibitor]: 15 UG IN 0.1 ML ACETONE 3/WK ADMINISTERED SIMULTANEOUSLY WITH CARCINOGEN FOR DURATION OF STUDY (STUDY DURATION: 368 D), Route [Inhibitor]: DERMAL, Species: MOUSE, Strain/Sex: ICR/FEMALE, Target Tissue: Type of Lesion: SKIN: SQUAMOUS CARCINOMA, Dose [Carcinogen]: 5 UG IN 0.1 ML ACETONE 3/WK FOR DURATION OF STUDY, Promoter: NONE USED","10/50 (20%), 27/50 (54%), -170%, not calculated"
COc1ccc(CCN(C)CCCC(C#N)(c2ccc(OC)c(OC)c2)C(C)C)cc1OC (configuration not stated),"tumour outcome (control, treated, inhibition, significance)","Carcinogen: 7,12-DIMETHYLBENZ[A]ANTHRACENE, 57-97-6, Dose [Inhibitor]: 0, 3.5 MG/KG/D IN DRINKING WATER (STUDY DURATION: 20 WK), Route [Inhibitor]: ORAL, Species: RAT, Strain/Sex: SPRAGUE-DAWLEY/FEMALE, Target Tissue: Type of Lesion: MAMMARY GLAND: TUMOR, Dose [Carcinogen]: 50 MG/KG ONCE, Promoter: NONE USED","9/20 (45%), 3/20(15%), 67%, p< 0.05"
same,"tumour outcome (control, treated, inhibition, significance)","Carcinogen: 7,12-DIMETHYLBENZ[A]ANTHRACENE, 57-97-6, Dose [Inhibitor]: 0, 2 UMOL 1/WK FOR 21 WK APPLIED 1 HR POST EACH PROMOTER DOSE (STUDY DURATION: 21 WK), Route [Inhibitor]: DERMAL, Species: MOUSE, Strain/Sex: SENCAR/FEMALE, Target Tissue: Type of Lesion: SKIN: PAPILLOMA, Dose [Carcinogen]: 25 NMOL ONCE, Promoter: CHRYSAROBIN, 491-58-7","90%, 82%, 9%, not significant"
same,"tumour outcome (control, treated, inhibition, significance)","Carcinogen: N-NITROSOMORPHOLINE, 59-89-2, Dose [Inhibitor]: 0, 20 MG/KG BW IN 0.9% SALINE 1/2 D FOR DURATION OF STUDY (STUDY DURATION: 16 WK), Route [Inhibitor]: INTRAPERITONEAL, Species: RAT, Strain/Sex: SPRAGUE-DAWLEY/MALE, Target Tissue: Type of Lesion: LIVER: HEPATOCELLULAR CARCINOMA, Dose [Carcinogen]: 175 MG/L IN DRINKING WATER FOR 8 WK, Promoter: NONE USED","10/20 (50%), 3/20 (15%), 70%, p<0.05"
CCCCCCCCCCCCCCCC(=O)OC[C@@]1(O)C[C@@]23CC[C@@H]4c5ccoc5CC[C@@]4(C)[C@@H]2CC[C@@H]1C3,"tumour outcome (control, treated, inhibition, significance)","Carcinogen: 7,12-DIMETHYLBENZ[A]ANTHRACENE, 57-97-6, Dose [Inhibitor]: 0, 60 MG 1/D FOR 3 D BEGINNING 3 D PRIOR TO CARCINOGEN DOSE (STUDY DURATION: 20 WK), Route [Inhibitor]: GAVAGE, Species: RAT, Strain/Sex: SPRAGUE-DAWLEY/FEMALE, Target Tissue: Type of Lesion: MAMMARY GLAND: TUMOR, Dose [Carcinogen]: 12 MG IN 1 ML OLIVE OIL ONCE, Promoter: NONE USED","84%, 69%, 18%, not significant"
CC1=C(O)C(=O)CO1,"tumour outcome (control, treated, inhibition, significance)","Carcinogen: BENZO[A]PYRENE, 50-32-8, Dose [Inhibitor]: 0, 25 PPM IN DIET FOR 17 WK BEGINNING 1 WK POST CARCINOGEN TREATMENT (STUDY DURATION: 21 WK), Route [Inhibitor]: ORAL, Species: MOUSE, Strain/Sex: ICR/FEMALE, Target Tissue: Type of Lesion: FORESTOMACH: TUMOR, Dose [Carcinogen]: 1.5 MG IN 0.2 ML CORN OIL 1/WK FOR 4 WK, Promoter: NONE USED","90%, 80%, 11%, not significant"
same,"tumour outcome (control, treated, inhibition, significance)","Carcinogen: BENZO[A]PYRENE, 50-32-8, Dose [Inhibitor]: 0, 50 PPM IN DIET FOR 17 WK BEGINNING 1 WK POST CARCINOGEN TREATMENT (STUDY DURATION: 21 WK), Route [Inhibitor]: ORAL, Species: MOUSE, Strain/Sex: ICR/FEMALE, Target Tissue: Type of Lesion: FORESTOMACH: TUMOR, Dose [Carcinogen]: 1.5 MG IN 0.2 ML CORN OIL 1/WK FOR 4 WK, Promoter: NONE USED","90%, 85%, 6%, not significant"
same,"tumour outcome (control, treated, inhibition, significance)","Carcinogen: BENZO[A]PYRENE, 50-32-8, Dose [Inhibitor]: 0, 75 PPM IN DIET FOR 17 WK BEGINNING 1 WK POST CARCINOGEN TREATMENT (STUDY DURATION: 21 WK), Route [Inhibitor]: ORAL, Species: MOUSE, Strain/Sex: ICR/FEMALE, Target Tissue: Type of Lesion: FORESTOMACH: TUMOR, Dose [Carcinogen]: 1.5 MG IN 0.2 ML CORN OIL 1/WK FOR 4 WK, Promoter: NONE USED","90%, 80%, 11%, not significant"
